Measured values from patent US20120157471A1, “BENZIMIDAZOLE DERIVATIVES” (PFIZER INC., priority 2009, published 2012).

Columns and labels:
[1] = target: T1, human Smo (amino acids 181-787) (Homo sapiens, UniProt Q99835); test: Smo radioligand competition binding assay (displacement of 3H-PF-03451358 from HEK293 membranes); conditions: for inhibition at 0.05 µM: 0.05 μM test compound, displacement of 3H-PF-03451358, read-out: SMO % inh. @ 0.05 μM; for IC50: radioligand competition binding
T1 construct: expressed in transfected cells; membrane preparation
How it was run: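 Displacement of 3 nM tritiated PF-03451358 measured by filtration and scintillation counting after 2 h at room temperature, using 40 μg/well HEK293 membranes bearing cell-surface Smo 181-787, pH 7.5 buffer. Specific binding defined against 30 μM unlabelled ligand; IC50 via variable-slope sigmoidal fit.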

Gli-Luc/MEF cells (Smo) = test: Gli-Luc/MEF assay (Shh-stimulated luciferase reporter under the Gli response element); format: cell-based, mouse; conditions: Mus musculus, MEF, 48 h
How it was run: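 IC50 derived from luminescence (Bright-Glo) after 48 h at 37° C, 5% CO2, with compound at […] (3-fold dilutions) added together with mouse Shh at 2 μg/mL final. Cells: MEFs from Gli-Luc transgenic mice.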

T1 sequence (Q99835 181-787): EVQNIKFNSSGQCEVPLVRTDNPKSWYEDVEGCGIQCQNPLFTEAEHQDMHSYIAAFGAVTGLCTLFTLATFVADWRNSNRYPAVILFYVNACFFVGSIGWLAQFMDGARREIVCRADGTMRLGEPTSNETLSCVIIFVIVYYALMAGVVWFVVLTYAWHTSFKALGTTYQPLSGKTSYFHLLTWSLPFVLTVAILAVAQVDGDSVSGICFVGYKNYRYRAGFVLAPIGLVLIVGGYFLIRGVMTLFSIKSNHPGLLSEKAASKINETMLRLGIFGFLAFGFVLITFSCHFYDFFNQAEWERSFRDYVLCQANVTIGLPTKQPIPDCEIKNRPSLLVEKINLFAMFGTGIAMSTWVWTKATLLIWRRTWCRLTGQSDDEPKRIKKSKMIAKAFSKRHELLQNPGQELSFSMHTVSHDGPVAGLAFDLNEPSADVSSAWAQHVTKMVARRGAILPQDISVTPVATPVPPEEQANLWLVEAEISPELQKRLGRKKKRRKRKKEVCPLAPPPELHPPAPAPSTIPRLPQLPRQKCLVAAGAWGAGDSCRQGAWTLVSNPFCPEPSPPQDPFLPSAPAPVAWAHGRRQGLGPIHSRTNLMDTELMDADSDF

| Structure (SMILES) | inhibition at 0.05 µM [1] | IC50 [1] | IC50 (Gli-Luc/MEF cells (Smo)) |
| --- | --- | --- | --- |
| CC1C(=O)NCCN1c1cc(-c2nc3ccccc3n2C)c(Cl)cn1 (stereo not shown) [Example A-171, 4-[5-chloro-4-(1-methyl-1H-benzimidazol-2-yl)pyridin-2-yl]-3-methylpiperazin-2-one] | 97% | 31 nM | 28 nM |
| CC(=O)NC1CCN(c2cc(-c3nc4ccccc4n3C)c(Cl)cn2)C1 (stereo in doubt) [Example A-116, N-{(3R)-1-[5-chloro-4-(1-methyl-1H-benzimidazol-2-yl)pyridin-2-yl]pyrrolidin-3-yl}acetamide] | 68% |  | 86 nM |
| CC(=O)N1CCN(c2cc(-c3nc4ccccc4[nH]3)c(Cl)cn2)CC1 [Example A-215, 2-[2-(4-acetylpiperazin-1-yl)-5-chloropyridin-4-yl]-1H-benzimidazole] | 79% | 189 nM | 63 nM |
| CC(=O)N1CCN(c2cc(-c3nc4ccccc4n3C)c(F)cn2)CC1 [Example D-1, 2-[2-(4-acetylpiperazin-1-yl)-5-fluoropyridin-4-yl]-1-methyl-1H-benzimidazole] | 97% | 22 nM | 27 nM |
| COC1CCOC2(CCN(c3cc(-c4nc5ccccc5n4C)c(Cl)cn3)CC2)C1 (stereo not shown) [Example A-90, 9-[5-chloro-4-(1-methyl-1H-benzimidazol-2-yl)pyridin-2-yl]-4-methoxy-1-oxa-9-azaspiro[5.5]undecane] | 88% | 71 nM | 16 nM |
| Cn1nc2n(c1=O)CCN(c1cc(-c3nc4ccccc4n3C)c(Cl)cn1)CC2 [Example A-78, 7-[5-chloro-4-(1-methyl-1H-benzimidazol-2-yl)pyridin-2-yl]-2-methyl-2,5,6,7,8,9-hexahydro-3H-[1,2,4]triazolo[4,3-d][1,4]diazepin-3-one] | 92% | 14 nM | 11 nM |
| Cn1c(-c2cc(N3CCN(C=O)CC3)ncc2Cl)nc2cccnc21 [Example A-170, 4-[5-chloro-4-(3-methyl-3H-imidazo[4,5-b]pyridin-2-yl)pyridin-2-yl]piperazine-1-carbaldehyde] | 81% | 140 nM | 118 nM |
| CC(=O)N1CCCN(c2cc(-c3nc4ccccc4n3C)c(Cl)cn2)CC1 [Example A-50, 2-[2-(4-acetyl-1,4-diazepan-1-yl)-5-chloropyridin-4-yl]-1-methyl-1H-benzimidazole] | 100% | 7 nM | 4 nM |
| CC(=O)N1[C@@H]2CC[C@H]1CN(c1cc(-c3nc4ccccc4n3C)c(Cl)cn1)C2 [Example A-187, 2-{2-[(1R,5S)-8-acetyl-3,8-diazabicyclo[3.2.1]oct-3-yl]-5-chloropyridin-4-yl}-1-methyl-1H-benzimidazole] | 90% | 27 nM | 10 nM |
| Cn1c(-c2cc(N3CCC(S(N)(=O)=O)CC3)ncc2Cl)nc2ccccc21 [Example A-66, 1-[5-chloro-4-(1-methyl-1H-benzimidazol-2-yl)pyridin-2-yl]piperidine-4-sulfonamide] | 94% | 14 nM | 5 nM |
| Cn1c(-c2cc(N3C[C@@H](CO)C(C)(CO)C3)ncc2Cl)nc2ccccc21 (stereo in doubt) [Example A-95, {(3R,4S)-1-[5-chloro-4-(1-methyl-1H-benzimidazol-2-yl)pyridin-2-yl]-3-methylpyrrolidine-3,4-diyl}dimethanol] | 86% | 70 nM | 38 nM |
| Cn1c(-c2cc(N3CCOCC3)ncc2Cl)nc2ccccc21 [Example A-34, 2-(5-chloro-2-morpholin-4-ylpyridin-4-yl)-1-methyl-1H-benzimidazole] | 95% | 22 nM | 16 nM |
| COCC(=O)N1CCN(c2cc(-c3nc4ccccc4n3C)c(Cl)cn2)CC1 [Example A-201, 2-{5-chloro-2-[4-(methoxyacetyl)piperazin-1-yl]pyridin-4-yl}-1-methyl-1H-benzimidazole] | 96% | 14 nM | 8.8 nM |
| CNC(=O)N(C)C1CCN(c2cc(-c3nc4ccccc4n3C)c(Cl)cn2)C1 (stereo not shown) [Example A-182, 1-{1-[5-chloro-4-(1-methyl-1H-benzimidazol-2-yl)pyridin-2-yl]pyrrolidin-3-yl}-1,3-dimethylurea] | 85% | 50 nM | 31 nM |
| Cn1c(-c2nc(N3CCC(NS(C)(=O)=O)CC3)ncc2Cl)nc2ccccc21 [Example C-9, N-{1-[5-chloro-4-(1-methyl-1H-benzimidazol-2-yl)pyrimidin-2-yl]piperidin-4-yl}methanesulfonamide] | 100% | 6 nM | 2 nM |
| Cn1c(-c2cc(N3CCN(CCO)CC3)ncc2Cl)nc2ccccc21 [Example A-213, 2-{4-[5-chloro-4-(1-methyl-1H-benzimidazol-2-yl)pyridin-2-yl]piperazin-1-yl}ethanol] | 83% | 78 nM | 56.8 nM |
| CN(C)CC(=O)N1CCN(c2ncc(Cl)c(-c3nc4ccccc4n3C)n2)CC1 [Example C-15, 2-{4-[5-chloro-4-(1-methyl-1H-benzimidazol-2-yl)pyrimidin-2-yl]piperazin-1-yl}-N,N-dimethyl-2-oxoethanamine] | 95% | 64 nM | 8.9 nM |
| Cn1c(-c2cc(N3CCOCC(N4CCC(O)CC4)C3)ncc2Cl)nc2ccccc21 (stereo not shown) [Example A-115, 1-{4-[5-chloro-4-(1-methyl-1H-benzimidazol-2-yl)pyridin-2-yl]-1,4-oxazepan-6-yl}piperidin-4-ol] | 69% |  | 221 nM |
| CN(C1CN(c2cc(-c3nc4ccccc4n3C)c(Cl)cn2)C1)S(C)(=O)=O [Example A-149, N-{1-[5-chloro-4-(1-methyl-1H-benzimidazol-2-yl)pyridin-2-yl]azetidin-3-yl}-N-methylmethanesulfonamide] | 95% | 14 nM | 8 nM |
| CN1CC2(CCN(c3cc(-c4nc5ccccc5n4C)c(Cl)cn3)CC2)OC1=O [Example A-197, 8-[5-chloro-4-(1-methyl-1H-benzimidazol-2-yl)pyridin-2-yl]-3-methyl-1-oxa-3,8-diazaspiro[4.5]decan-2-one] | 96% | 10 nM | 6.9 nM |
| Cn1c(-c2cc(N3CCc4[nH]ncc4C3)ncc2Cl)nc2ccccc21 [Example A-173, 5-[5-chloro-4-(1-methyl-1H-benzimidazol-2-yl)pyridin-2-yl]-4,5,6,7-tetrahydro-1H-pyrazolo[4,3-c]pyridine] | 83% | 108 nM | 24 nM |
| Cn1c(-c2cc(N3CCNC(=O)CC3)ncc2Cl)nc2ccccc21 [Example A-33, 1-[5-chloro-4-(1-methyl-1H-benzimidazol-2-yl)pyridin-2-yl]-1,4-diazepan-5-one] | 98% | 9 nM | 8 nM |
| Cn1c(-c2ccnc(N3CCC(NS(C)(=O)=O)CC3)n2)nc2ccccc21 [Example C-10, N-{1-[4-(1-methyl-1H-benzimidazol-2-yl)pyrimidin-2-yl]piperidin-4-yl}methanesulfonamide] | 97% | 44 nM | 57 nM |
| CNC(=O)N(C)C1CCN(c2cc(-c3nc4ccccc4n3C)c(Cl)cn2)CC1 [Example A-179, 1-{1-[5-chloro-4-(1-methyl-1H-benzimidazol-2-yl)pyridin-2-yl]piperidin-4-yl}-1,3-dimethylurea] | 97% | 10 nM | 7 nM |
| C[C@@H]1CN(c2cc(-c3nc4ccccc4n3C)c(Cl)cn2)CCN1S(C)(=O)=O [Example A-158, 2-{5-chloro-2-[(3R)-3-methyl-4-(methylsulfonyl)piperazin-1-yl]pyridin-4-yl}-1-methyl-1H-benzimidazole] | 99% | 9 nM | 2 nM |
| Cn1c(-c2cc(N3CCC(C#N)CC3)ncc2Cl)nc2ccccc21 [Example A-75, 1-[5-chloro-4-(1-methyl-1H-benzimidazol-2-yl)pyridin-2-yl]piperidine-4-carbonitrile] | 92% | 23 nM | 11 nM |
| Cn1c(-c2cc(N3CC[C@@H](O)C3)ncc2Cl)nc2ccccc21 [Example A-26, (3R)-1-[5-chloro-4-(1-methyl-1H-benzimidazol-2-yl)pyridin-2-yl]pyrrolidin-3-ol] | 64% | 166 nM | 49 nM |
| Cn1c(-c2cc(N3C[C@H]4CNS(=O)(=O)[C@H]4C3)ncc2Cl)nc2ccccc21 (stereo in doubt) [Example A-55, 2-{5-chloro-2-[(3aS,6aR)-1,1-dioxidohexahydro-5H-pyrrolo[3,4-d]isothiazol-5-yl]pyridin-4-yl}-1-methyl-1H-benzimidazole] | 98% | 26 nM | 10 nM |
| Cn1c(-c2cc(N3CCN(CC(O)CO)CC3)ncc2Cl)nc2ccccc21 (stereo not shown) [Example A-103, 3-{4-[5-chloro-4-(1-methyl-1H-benzimidazol-2-yl)pyridin-2-yl]piperazin-1-yl}propane-1,2-diol] | 80% | 153 nM | 27 nM |
